The NIST ThermoML archive (doi:10.1021/je900414p)

Details: Liquid

CCO [ethanol]
mass density [kg/m3]
Details	100 kPa	2500 kPa	5000 kPa	10000 kPa	15000 kPa	20000 kPa	25000 kPa	30000 kPa	35000 kPa
283.15 K	797.76	799.74	801.73	805.58	809.28	812.8	816.2	819.47	822.63
288.15 K	793.65	795.66	797.73	801.67	805.43	809.06	812.52	815.87	819.04
293.15 K	789.19	791.25	793.37	797.42	801.3	804.99	808.53	811.94	815.23
298.15 K	784.92	787.03	789.21	793.38	797.34	801.11	804.75	808.21	811.58
303.15 K	780.63	782.81	785.04	789.3	793.37	797.25	800.93	804.49	807.95
308.15 K	776.26	778.54	780.82	785.22	789.37	793.34	797.14	800.76	804.27
313.15 K	771.91	774.26	776.62	781.13	785.4	789.45	793.33	797.04	800.61
318.15 K	767.58	769.99	772.41	777.04	781.43	785.59	789.55	793.36	796.98
323.15 K	763.09	765.56	768.08	772.84	777.34	781.59	785.65	789.53	793.24
328.15 K	758.54	761.09	763.7	768.58	773.22	777.57	781.73	785.7	789.5
333.15 K	753.96	756.61	759.27	764.32	769.08	773.56	777.81	781.87	785.76
338.15 K	749.42	752.16	754.89	760.09	764.99	769.59	773.96	778.09	782.06
343.15 K	744.74	747.57	750.39	755.74	760.75	765.47	769.94	774.17	778.23

CCOS(=O)(=O)[O-].CCn1cc[n+](C)c1 [1-ethyl-3-methylimidazolium ethyl sulfate]
mass density [kg/m3]
Details	100 kPa	2500 kPa	5000 kPa	10000 kPa	15000 kPa	20000 kPa	25000 kPa	30000 kPa	35000 kPa
283.15 K	1247.6	1248.59	1249.58	1251.56	1253.65	1255.44	1257.31	1259.18	1261.04
288.15 K	1244.17	1245.15	1246.17	1248.17	1250.14	1252.1	1254.03	1255.9	1257.77
293.15 K	1240.67	1241.7	1242.72	1244.75	1246.75	1248.72	1250.66	1252.56	1254.46
298.15 K	1237.33	1238.32	1239.36	1241.41	1243.42	1245.42	1247.38	1249.31	1251.22
303.15 K	1233.95	1234.96	1236.02	1238.1	1240.14	1242.15	1244.14	1246.11	1248.06
308.15 K	1230.49	1231.54	1232.6	1234.71	1236.78	1238.83	1240.83	1242.81	1244.76
313.15 K	1227.14	1228.21	1229.29	1231.41	1233.51	1235.57	1237.6	1239.6	1241.57
318.15 K	1223.86	1224.94	1226.03	1228.17	1230.31	1232.4	1234.44	1236.49	1238.47
323.15 K	1220.46	1221.54	1222.66	1224.85	1226.99	1229.11	1231.18	1233.23	1235.25
328.15 K	1217.07	1218.15	1219.31	1221.5	1223.69	1225.81	1227.93	1229.99	1232.04
333.15 K	1213.67	1214.63	1215.87	1218.14	1220.35	1222.53	1224.65	1226.74	1228.8
338.15 K	1210.4	1211.52	1212.68	1214.94	1217.17	1219.36	1221.51	1223.61	1225.71
